Data published in PubChem BioAssay (NCI).
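Five compound concentrations were applied to cells in 96-well plates for 48 hours; endpoints were derived by simple linear interpolation of the resulting dose-response curve. Abbreviation: GI50, concentration required for 50% inhibition of growth. TGI marks complete inhibition of growth.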

Test system: MDA-MB-468 breast
Assay: inhibition of tumour cell growth, NCI panel, 48 h

| SMILES | GI50 [nM] | TGI [nM] |
| --- | --- | --- |
| C#Cc1cccc(NC(=O)c2ccc(NC(=O)CCl)cc2)c1 | 18800 | 76900 |
| N#CC1C(=O)NC(c2ccccc2[N+](=O)[O-])c2sc3c(F)cccc3c21 (centres undefined) | 108 | 283 |
| CN(C)c1ccc(N=C2C=CC(=O)c3ccccc32)cc1 | 2150 | 6050 |
| Cc1ccc(S(=O)(=O)N2CCc3ccc(O)c4c3C2Cc2ccc3c(c2-4)OCO3)cc1 (centres undefined) | 743 | 7490 |
| Cc1ccc(S(=O)(=O)Nc2ccc(-c3cc(-c4cccc(F)c4)c(C#N)c(N)n3)cc2)cc1 | 1720 | 3760 |
| COc1ccc(OC)c(/C=C/c2nc(SCc3ccccc3)n(-c3ccc(Cl)cc3)n2)c1 | 5120 | 84500 |
| O=[N+]([O-])c1ccc(Sc2ccncn2)c([N+](=O)[O-])c1 | 982 | 3780 |
| C[C@@H](Oc1cc(-n2cnc3ccc(OC[C@@H](O)CO)cc32)sc1C(N)=O)c1ccccc1Cl | 15.9 | 6070 |
| Cc1nccc2c3ccc(OCc4cn(-c5ccc(Cl)cc5)nn4)cc3n(CC(C)C)c12 | 968 | 12000 |
| CN(C)CCOC(=O)Nc1nc2ccc(Sc3ccccc3)cc2[nH]1 | 2020 | 7730 |
| CC1(C)N=C(N)N=C(N)N1c1cccc(Br)c1 | 400 | > 85100 |
| COCc1c(-c2ccc(NC(=O)Nc3cc(C(F)(F)F)ccc3F)c(F)c2)c2c(N)ncnn2c1CN1CCOCC1 | 1620 | 5680 |
| CCN(Cc1ccc(F)cc1)c1ccc(CO)c(OC)c1 | 435 | 2110 |
| COc1cccc(Nc2nccc(-c3cnn4ncccc34)n2)c1 | 48.4 | 106 |
| CN(C)CCNC(=O)NC[C@H]1CC[C@@H]2[C@H](O1)c1cc(C(F)(F)F)ccc1N[C@H]2c1ccccc1 | 34.9 | 312 |
| COc1ccc(N(C)c2nc(Cl)nc3cnn(C)c23)cc1 | < 10 | > 100000 |
| CNC(=O)c1cc(Oc2ccc3c(c2)sc2nc(-c4ccc(N(C)C)cc4)cn23)ccn1 | 300 | > 50000 |
| CN1CCN(Cc2ccc(NC(=O)c3cncc(C#Cc4cnc(N)c5cnccc45)c3)cc2C(F)(F)F)CC1 | 285 | 4520 |
| COC(=O)[C@]12CC[C@@H](C)[C@H](C)[C@@H]1C1=CC[C@@H]3[C@@]4(C)C(C=O)=C[C@@](C)(COC(=O)/C=C/c5ccccc5)[C@@H]4[C@H](O)C[C@@]3(C)[C@]1(C)CC2 | 2590 | 7490 |
| COC1=CC(=O)c2nc(Cl)ccc2C1=O | 1360 | 2670 |
| Nc1c(F)cc(-c2nc3cc(F)ccc3[se]2)cc1Br | 26 | 93.3 |
| CCC(=O)Nc1cc(Nc2cc(NC3CC3)n3ncc(C#N)c3n2)ccc1C | 1160 | 4060 |
| CCCN1CCC(c2ccc(Nc3nc(Nc4cc(F)ccc4C(N)=O)c4cc[nH]c4n3)c(OC)c2)CC1 | 3470 | 7390 |
| FC(F)(F)c1cc(Nc2ccc3cc(OCCCN4CCOCC4)ccc3n2)ccc1Cl | 1910 | 6750 |
| COCCn1cc(-c2csc(-c3c[nH]c4ccc(Br)cc34)n2)c2cccnc21 | 2340 | 7630 |
| Cc1cc(Cl)cc(Cc2cc(Cl)cc(C)c2O)c1O | 2220 | 6920 |
| COc1ccc(/C=C2\c3cc(OC)c(OC)c(OC)c3CC[C@@H]2O)cc1F | 1160 | > 100000 |
